Data on three molecules can be found in patent publication US6894054B2, “Heterocyclic inhibitors of glycine transporter 2” (Telik, Inc., priority 2001, dated 2005).

Structures are written as SMILES.

In the assay the target is T1, rat glycine transporter subtype 2 (GlyT2) (Rattus norvegicus, UniProt P58295).
T1 construct: expressed in transfected cells; host or cells: CHO cells
T1 sequence (P58295 1-799): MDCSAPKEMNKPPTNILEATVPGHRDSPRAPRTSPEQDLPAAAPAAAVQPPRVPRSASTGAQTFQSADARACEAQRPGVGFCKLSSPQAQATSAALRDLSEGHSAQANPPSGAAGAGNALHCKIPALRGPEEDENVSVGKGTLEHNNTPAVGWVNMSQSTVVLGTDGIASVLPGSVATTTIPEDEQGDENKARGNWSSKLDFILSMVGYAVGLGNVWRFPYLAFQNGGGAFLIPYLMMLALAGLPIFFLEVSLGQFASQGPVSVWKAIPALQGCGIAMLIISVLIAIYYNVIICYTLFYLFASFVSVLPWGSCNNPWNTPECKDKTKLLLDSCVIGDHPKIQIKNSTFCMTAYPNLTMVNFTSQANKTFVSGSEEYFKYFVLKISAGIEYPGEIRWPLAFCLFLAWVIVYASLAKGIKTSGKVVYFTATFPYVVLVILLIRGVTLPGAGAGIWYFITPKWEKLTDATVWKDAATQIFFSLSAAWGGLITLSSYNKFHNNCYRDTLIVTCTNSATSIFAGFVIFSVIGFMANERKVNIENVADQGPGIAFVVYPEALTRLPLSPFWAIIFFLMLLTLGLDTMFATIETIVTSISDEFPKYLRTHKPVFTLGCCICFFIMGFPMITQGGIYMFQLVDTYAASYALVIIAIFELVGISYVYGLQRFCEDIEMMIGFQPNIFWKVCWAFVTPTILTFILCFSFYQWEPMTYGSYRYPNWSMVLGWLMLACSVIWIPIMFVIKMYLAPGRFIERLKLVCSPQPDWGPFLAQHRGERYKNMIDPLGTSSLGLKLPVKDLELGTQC
The assay is described as follows: Inhibition of glycine transporter 2: 3H-glycine uptake in CHO cells expressing rat GlyT2. It is filed as cell-based. Particulars: GlyT2 inhibitory concentration, 15 min preincubation, 10 nM 3H-glycine, 7 min uptake, read-out: GlyT2 Inhib. How it is done:
CHO cells expressing rat glycine transporter subtype 2 (GlyT2) were grown in high glucose Dulbecco's modified Eagle's medium supplemented with 10% bovine fetal serum at 37° C. in a 5% CO2 atmosphere. Subconfluent cells growing in 24- or 96-well plates were washed with PBS, and were preincubated at 37° C. for 15 min with uptake buffer (100 mM NaCl, 2 mM KCl, 1 mM CaCl2, 1 mM MgCl2, 10 mM HEPES, pH 7.5) containing sample compounds. Uptake was initiated by adding prewarmed ^3H-glycine yielding a 10 nM final glycine concentration, and was terminated after 7 min by aspiration of the buffer. Cells were washed 3 times with ice-cold PBS, and radioactivity was determined by scintillation counting using TopCount. GlyT2 inhibitory concentrations for several compounds of Formula I are given below.

On to `CCn1nc(C)cc1-c1nnc(SCc2ccccc2)n1-c1ccccc1` [Compound 7, 3-benzylthio-5-(2-ethyl-5-methyl-3-diazolyl)-4-phenyl-1,2,4-triazole], for which the IC50 is 6600 nM.
The figure for `c1ccc(CSc2nnc(CCCCc3nnc(SCc4ccccc4)o3)o2)cc1` [Compound 21, 2,2′-(1,4-butanediyl)bis[5-(benzylthio)-1,3,4-oxadiazole]] is 1100 nM; for `Clc1cccc(Cl)c1CSc1nnc(-c2cnccn2)s1` [Compound 12, 5-[(2,6-dichlorophenyl)methylthio]-2-(pyrazin-2-yl)-1,3,4-thiadiazole] it is 900 nM.
